One experiment has as its system cortical neurons. Nature of the experiment: Calcium ion signalling (fura 2) in intact cortical neurons. The format is cell-based, chick. The conditions noted are these: neurons loaded to 150 ± 20 pmoles per mg protein; 10 µM glutamate agonist, 30 minutes. As to the method: Metabotropic receptor function was examined in intact neurons by assaying lysosphingolipid modulation of calcium ion signalling. Approximately 1 X 10^6 cortical neurons were cultured on rectangular L-polylysine-coated coverslips and loaded with lysocerebroside or lysosphingomyelin to a level of 150 ± 20 pmoles per mg protein. The neurons were returned to complete Ham's high glucose medium/DMEM (1:1, vol:vol) and infiltrated with 5 µM fura 2/AM (Molecular Probes, Eugene, OR). Fura 2 is a calcium chelator whose fluorescence absorbance shifts to shorter wavelength upon calcium ion binding is measurable in intact cells. A change in intraneuronal calcium ion concentration was monitored as a change in the fluorescence spectrum.
The neurons were exposed to 10 µM glutamate agonist (for example, ibotenate) for 30 minutes at 37°C. The coverslips were then transferred to quartz cuvettes in medium containing 250 µM sulfinpyrazone to prevent fura 2/AM diffusion. Fluorescence ratios were recorded in a Perkin-Elmer LS-5 Fluorescence Spectrometer thermostatted at 37°C at excitation wavelengths of 340 and 380 nm, and emission measurement at 500 nm. Calcium ion signalling in agonist-stimulated neurons was 3.0 ± 0.2 arbitrary units for ibotenate-exposed neurons.

Another experiment relates to hippocampal neurons. Nature of the experiment: Histological analysis of brain (cresyl violet) seven days after ICV infusion. In kind it is in vivo, rats. The following applies: pretreatment with psychosine 125 nmoles; quisqualate 225 nmoles ICV; Figs. 7A and 7B. As to the method:
The animals used in this experiment were male F344 rats (Charles River Breeding Laboratories). The animals were housed individually, exposed to a 12-hour light-dark cycle, and allowed free access to food and water. The animals weighed approximately 250 g at the beginning of each experiment and were weighed daily. In addition, the animals were habituated to handling before each experiment.
Before administering various compounds, the animals were anesthetized with sodium pentobarbital (50 mg/kg, i.p.) and positioned in a sterotaxic instrument. A 26 gauge cannula was inserted into the cerebral ventricle at the following co-ordinates: 1.0 mm posterior to bregma, 1.5 mm lateral to the midline, and 4.0 mm below the dorsal surface of the neocortex. Cannulas were capped and fixed in place with dental cement. One week after cannulation, 10 µl of each of the treatment drugs was infused, ICV (i.e. into the ventricals of the brain), via a micropump at a rate of 10 µl/min. For this procedure, the animals were lightly restrained and unanesthetized. Following administration of the compound, the infusion cannula remained in position for one minute, after which the permanent in situ cannula was capped.
The compounds administered were obtained from a commercial supplier (Sigma Chemical Co., St. Louis, MO) and dissolved in saline prior to injection. These compounds included quisqualate (injected at doses ranging from 100 nmole/10 µl to 1 µmole/10 µl), lysocerebroside, and lysophingomyelin (which were injected at doses of 25 nmoles/10 µl to 150 nmoles/10 µl).
Seven days after the compounds were administered, animals were sacrificed by transcardial perfusion with neutralized, buffered 10% formalin-saline. Their brains were removed, post-fixed overnight in 10% formalin-saline, and sectioned along the coronal plane (into 50 µm thick sections) on a freezing microtome. The sections were stained with cresyl violet to determine the extent of cellular destruction. […]
Given that high concentrations of metabotropic receptors are located in the hippocampus, and that the hippocampus is particularly vulnerable to the effects of a variety of insults including ischemia and hypoxia, this region was examined for evidence of neuronal degeneration due to glutamate excitoxicity.

In the case of `CCCCCCCCCCCCC/C=C/[C@@H](O)[C@@H](N)COP(=O)([O-])OCC[N+](C)(C)C` [lysosphingomyelin, sphingosyl phosphorylcholine], the “agonist-elicited calcium signalling in lysosphingolipid-loaded neurons” value with cortical neurons was “no calcium signalling measurably over controls”. With `CCCCCCCCCCCCC/C=C/[C@@H](O)[C@@H](N)CO[C@@H]1O[C@H](CO)[C@H](O)[C@H](O)[C@H]1O` [psychosine], the “neuronal loss (CA1 pyramidal neurons) caused by quisqualate” value with hippocampal neurons is given as “prevents the neuronal loss caused by quisqualate”. Moreover, the “agonist-elicited calcium signalling in lysosphingolipid-loaded neurons” value in the experiment on cortical neurons is listed as “no calcium signalling measurably over controls”.

For the origin of these results see EP1488698A1, “Compositions for descreasing intracellular inositol trisphosphate concentration and uses thereof” (priority 1995, dated 1997).
